Assays:
[1] = Release of cycloheximide and cis-platin from gels, UV absorbance; assay type: physicochemical; details: release from gels in 3 ml of 0.9% NaCl, 300 nm
Protocol: The first series of samples was prepared by mixing 5.51 ml of TMOS (37 mmol), 2.67 ml of either drug solutions (148 mmol of H2O) and 6 ml of methanol (148 mmol). 4 ml aliquots of the solutions were transferred to 5 ml screw capped poly-propylene vials and placed in an oven at 60° C. to gel. Once gelation occurred the samples were aged at 60° C. for 7 days. The cap was then removed and the samples were allowed to dry for 3 days at 60° C.
A second series of samples was prepared by combining 3 ml of TMOS (20 mmol), 2.88 ml of MTMS (20 mmol) and 2.91 ml of the respective drug solution (161 mmol of H2O). These samples were processed as described above.
The release of cycloheximide from a known quantity of gel was investigated in 3 ml of demineralised water and the absorbance was monitored at a fixed wavelength, .λmax=201 nm. The release of cis-platin from a known quantity of gel was investigated in 3 ml of 0.9% NaCl and the absorbance was monitored at a fixed wavelength, λmax=300 nm.

[2] = Degradation of cis-platin in silica gels on aging at 60° C., examined by transmission electron microscopy; assay type: physicochemical
Protocol: The substitution of metal alkoxides by organically modified silicon alkoxides leads to the replacement of the hydroxyl groups at the surface of the pores by organic moieties (e.g. methyl vinyl, glycidyloxypropyl groups). This prevents interaction between the entrapped bio-molecules and the surface, and potential degradation of the active ingredient. This is illustrated by the encapsulation of cis-platin in silica gels.
A solution containing 20 ml of TMOS (134 mmol), 9.69 ml of cis-platin solution (538 mmol of water) and 21.8 ml of methanol (538 mmol) was stirred for 30 minutes. 4 ml aliquots of the solution were transferred to 5 ml screw capped poly-propylene vials and placed in an oven at 60° C. to gel. Once gelation occurred the samples were aged at 60° C. for 15 days. The cap was then removed and the samples were allowed to dry for 3 days at 60° C.
An identical procedure was used to prepare gels from a solution containing 3 ml of TMOS, 2.88 ml of MTMS and 2.91 ml of cis-platin solution.
After 3 days of aging at 60° C. the gels prepared from TMOS started to darken, ultimately yielding a black gel after 15 days aging. […] The two dry gels were subsequently examined by transmission electron microscopy using a JEOL 201 OF field emission gun microscope.

[3] = Release of dye from sol-gel silica gels/microspheres into demineralised water, UV-visible absorbance; assay type: physicochemical
Protocol: The release of the dye molecule from the gels was performed in 3 ml of demineralised water and the evolution of the absorbance with time was monitored at a fixed wavelength λmax=485 nm using a UV-visible spectrophotometer (Lambda 40, Perkin Elmer, USA). The wavelength of 485 nm corresponds to the absorbance maximum of Orange II in the visible spectrum.
The plots of fraction of dye released versus time (FIG. 1) were obtained by dividing the actual quantity of dye released by the total mass of dye encapsulated in the gel. For the dry gel, this quantity is calculated by dividing the total quantity of dye in the gel rod by the mass of the gel and multiplying it by the mass of the gel sample used in the release experiments. For the wet gel, the fraction released was obtained experimentally from the final absorbance.
To study the influence of the temperature on the release rate, a known quantity of gel was immersed in 3 ml of demineralised water and the absorbance was monitored at a fixed wavelength of 485 nm. One sample was kept at ambient temperature (i.e. 22° C.) and two others were maintained at 37° C. and 60° C. in thermostated water baths.
The release rates of the Orange II samples were monitored at a fixed wavelength of 485 nm while the release rates of the methyl-violet samples were monitored at 584 nm (corresponding to the absorption peak of methyl-violet in the visible spectrum).

[4] = spray-dried particles produced from bohemite sols; cited from earlier work

In the case of Cis Pt(NH3)2Cl2 [cis-platin], the “release rate compared with cycloheximide” value [1] is reported as “greater”, the “reaction of cis-platin with the matrix, MTMS substituted gels” value ([2]; 50% of TMOS substituted by MTMS) is reported as “prevents any such precipitation” and the “reaction of cis-platin with the matrix, silica gels” value ([2]; encapsulated in silica gels (TMOS)) is reported as “precipitation of metallic platinum nanoparticles”.

With `O=S(=O)([O-])c1ccc(N=Nc2c(O)ccc3ccccc23)cc1.[Na+]` [Orange II, 4-(2-hydroxy-1-napthylazo) benzene sulfonic acid, sodium salt] the “release rate versus MTMS content” value ([3]; 0-50% of TMOS substituted with MTMS, W=4, D=4) was “decrease with increasing MTMS content”, the “release rate versus drying time and temperature” value ([3]; gels W=4, D=0, dried 1, 3 or 7 days at ambient, 60° or 104° C.) was “decrease with increasing time and temperature” and the “pH of maximum release rate” value ([3]; gels W=4, D=4, dye solution pH 1-11) was 7. The “release rate versus pH, acid catalyst” value ([3]; gels W=4, D=4, synthesised using acid as a catalyst) was “increase with increasing pH”, the “release rate versus pH, base catalyst” value ([3]; gels W=4, D=4, synthesised using base as a catalyst) was “decrease with increasing pH” and the “release rate versus syneresis time” value ([3]; gels aged at 60° C. for 0-30 days) was “increase with syneresis time”. For the same molecule, the “release rate of the dye versus W and D” value ([3]; gels with W = 2-8, D = 0-8, release in demineralised water, 485 nm) was “increase with increasing W and decreasing D”, the “release rate of microspheres versus drying temperature” value ([3]; microspheres dried from ambient to 100° C. for 2 days) was “decreases with increasing drying temperature” and the “release rate versus temperature of the release media” value ([3]; release at 22° C., 37° C. and 60° C. in demineralised water) was “increase with increasing temperature”.

In the case of `CN(C)CCCN1c2ccccc2CCc2ccccc21` [imipramine], the “release of encapsulated imipramine” value [4] is listed as “released within five minutes”.

With methyl violet the “release rate compared with Orange II” value ([3]; gels W=4, D=4, aged 15 or 30 days at 60° C., monitored at 584 nm) was “significantly smaller”.

Reference: patent US7585521B2, “Controlled release ceramic particles, compositions thereof, processes of preparation and methods of use” (Australian Nuclear Science & Technology Organisation, priority 2000, dated 2009)
